Measured values from patent publication US7812014B2, “Bicyclic 6-alkylidene-penems as β-lactamase inhibitors” (priority 2002, dated 2010).

Columns and labels:
E. Cloacae GC1477 (Ampc) = experiment: Antimicrobial susceptibility testing, microbroth dilution, piperacillin + inhibitor; assay type: cell-based; conditions: piperacillin combined with constant 4 ug/ml of inhibitor; 35° C. for 18 hours
Method: (§1) Antimicrobial susceptibility testing. The in vitro activities of the antibiotics were determined by the microbroth dilution method as recommended by the National Committee for Clinical Laboratory Standards (NCCLS). (NCCLS. 2000. Methods for Dilution Antimicrobial Susceptibility Tests for Bacteria That Grow Aerobically; Approved Standards: M7-A5, vol. 19. National Committe for Clinical Laboratory Standards, Villanova, Pa.). Mueller-Hinton II broth (MHBII) (BBL Cockeysville, Md.), was used for the testing procedure. Microtiter plates containing 50 μl per well of two-fold serial dilutions of piperacillin combined with a constant amount (4 ug/ml) of a B-lactamase inhibitor were inoculated with 50 μl of inoculum to yield the appropriate density (10^5 CFU/ml) in 100·I final volume. The plates were incubated for 18-22 hours at 35° C. in ambient air.

[1] = system: S. Marcescens GC1781 Sme-1 + Ampc; experiment: as above; assay type: cell-based; conditions: piperacillin combined with constant 4 ug/ml of inhibitor; 35° C. for 18 hours
Method: as §1

[2] = system: P. aeruginos GC1764 (Ampc); experiment: as above; assay type: cell-based; conditions: piperacillin combined with constant 4 ug/ml of inhibitor; 35° C. for 18 hours
Method: as §1

[3] = biological target: class A β-lactamase Imi-1 (Enterobacter cloacae, UniProt Q46991); experiment: IC50 determination, β-lactamase inhibition (nitrocefin, spectrophotometric); assay type: biochemical; conditions: enzyme 7.1 nM; 10 minutes preincubation at 25° C.; nitrocefin 50 μg/ml; pH 7.0; read-out: IC50 (nM) Class A Imi
Chain of class A β-lactamase Imi-1 (Q46991 28-292): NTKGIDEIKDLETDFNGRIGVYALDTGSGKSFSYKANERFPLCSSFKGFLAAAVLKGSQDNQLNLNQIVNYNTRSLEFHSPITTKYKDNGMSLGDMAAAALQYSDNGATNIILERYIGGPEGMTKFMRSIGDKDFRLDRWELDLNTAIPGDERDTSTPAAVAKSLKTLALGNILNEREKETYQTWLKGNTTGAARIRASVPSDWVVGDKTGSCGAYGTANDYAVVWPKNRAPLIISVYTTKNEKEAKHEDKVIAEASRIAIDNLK

class B enzyme CcrA = class B enzyme CcrA (Bacteroides fragilis, UniProt P25910); experiment: as above; assay type: biochemical; conditions: enzyme 1.2 nM; 10 minutes preincubation at 25° C.; nitrocefin 50 μg/ml; pH 7.0; read-out: IC50 (nM) Class B Ccr
Chain of class B enzyme CcrA (P25910 19-249): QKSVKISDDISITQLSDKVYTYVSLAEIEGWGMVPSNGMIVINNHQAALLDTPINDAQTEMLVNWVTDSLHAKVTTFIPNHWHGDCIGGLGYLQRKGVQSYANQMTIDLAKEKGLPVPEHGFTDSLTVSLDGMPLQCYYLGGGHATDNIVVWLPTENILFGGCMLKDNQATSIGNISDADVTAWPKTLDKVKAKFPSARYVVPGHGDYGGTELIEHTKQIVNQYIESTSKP

class C enzyme AmpC = class C enzyme AmpC (Enterobacter cloacae, UniProt P05364); experiment: biochemical; parameters: species or system Enterobacter cloaca; conditions: enzyme 2.1 nM; 10 minutes preincubation at 25° C.; nitrocefin 50 μg/ml; pH 7.0; read-out: IC50 (nM) Class C AmpC
Chain of class C enzyme AmpC (P05364 21-381): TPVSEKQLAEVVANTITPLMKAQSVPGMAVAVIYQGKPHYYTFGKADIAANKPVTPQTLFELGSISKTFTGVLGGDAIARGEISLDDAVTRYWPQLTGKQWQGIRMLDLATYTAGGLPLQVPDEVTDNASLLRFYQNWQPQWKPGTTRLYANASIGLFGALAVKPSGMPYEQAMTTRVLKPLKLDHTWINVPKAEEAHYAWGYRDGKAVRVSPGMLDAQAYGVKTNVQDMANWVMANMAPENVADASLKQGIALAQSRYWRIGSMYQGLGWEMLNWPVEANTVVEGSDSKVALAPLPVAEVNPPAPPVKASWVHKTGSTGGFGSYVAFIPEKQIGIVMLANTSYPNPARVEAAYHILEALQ

E. Coli GC2920 (IRT-2) = experiment: Antimicrobial susceptibility testing, microbroth dilution, piperacillin + inhibitor; assay type: cell-based; conditions: piperacillin combined with constant 4 ug/ml of inhibitor; 35° C. for 18 hours
Method: as §1, with “air. […] The MIC data obtained by the above said procedure are enlisted in Table 2.” for “air.”

E. Coli GC2844 = experiment: as above; assay type: cell-based; conditions: piperacillin combined with constant 4 ug/ml of inhibitor; 35° C. for 18 hours
Method: as §1, with “air. […] The MIC data obtained by the above said procedure are enlisted in Table 2.” for “air.”

E. Coli GC22033 = experiment: as above; assay type: cell-based; conditions: piperacillin combined with constant 4 ug/ml of inhibitor; 35° C. for 18 hours
Method: as §1, with “air. […] The MIC data obtained by the above said procedure are enlisted in Table 2.” for “air.”

S. aureus GC2216 = experiment: as above; assay type: cell-based; conditions: piperacillin combined with constant 4 ug/ml of inhibitor; 35° C. for 18 hours
Method: as §1, with “air. […] The MIC data obtained by the above said procedure are enlisted in Table 2.” for “air.”

E. Coli GC2847 (TEM-1) = experiment: as above; assay type: cell-based; conditions: piperacillin combined with constant 4 ug/ml of inhibitor; 35° C. for 18 hours
Method: as §1, with “air. […] The MIC data obtained by the above said procedure are enlisted in Table 2.” for “air.”

E. Coli GC2894 (Ampc) = experiment: as above; assay type: cell-based; conditions: piperacillin combined with constant 4 ug/ml of inhibitor; 35° C. for 18 hours
Method: as §1, with “air. […] The MIC data obtained by the above said procedure are enlisted in Table 2.” for “air.”

[4] = system: Clinical isolates that have been adapted to cause infection in mice; experiment: In vivo antibacterial protection, 7 day survival of infected mice; parameters: species or system mice strain CD-1
[5] = biological target: class A β-lactamase TEM-1 (Escherichia coli, UniProt P62593); experiment: IC50 determination, β-lactamase inhibition (nitrocefin, spectrophotometric); assay type: biochemical, E. coli; conditions: enzyme 4.3 nM; 10 minutes preincubation at 25° C.; nitrocefin 50 μg/ml; pH 7.0
Chain of class A β-lactamase TEM-1 (P62593 24-286 limits assumed): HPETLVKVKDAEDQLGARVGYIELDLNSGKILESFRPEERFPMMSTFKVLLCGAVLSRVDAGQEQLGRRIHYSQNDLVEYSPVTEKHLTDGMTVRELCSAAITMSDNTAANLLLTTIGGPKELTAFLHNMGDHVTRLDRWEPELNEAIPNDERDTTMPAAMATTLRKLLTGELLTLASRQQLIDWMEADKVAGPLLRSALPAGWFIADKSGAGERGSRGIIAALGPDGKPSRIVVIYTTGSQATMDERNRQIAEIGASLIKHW

[6] = Ratio of Piperacillin vs. Inhibitor not given

SMILES | Minimal Inhibitory Concentration E. Cloacae GC1477 (Ampc) (E. Cloacae GC1477 (Ampc)) [µg/mL] | Minimal Inhibitory Concentration S. Marcescens GC1781 Sme-1 + Ampc [1] [µg/mL] | Minimal Inhibitory Concentration P. aeruginos GC1764 (Ampc) [2] [µg/mL] | IC50 [3] [nM] | IC50 (class B enzyme CcrA) [nM] | IC50 (class C enzyme AmpC) [nM] | Minimal Inhibitory Concentration E. Coli GC2920 (IRT-2) (E. Coli GC2920 (IRT-2)) [µg/mL] | Minimal Inhibitory Concentration E. Coli GC2844 (E. Coli GC2844) [µg/mL] | Minimal Inhibitory Concentration E. Coli GC22033 (E. Coli GC22033) [µg/mL] | Minimal Inhibitory Concentration S. aureus GC2216 (S. aureus GC2216) [µg/mL] | Minimal Inhibitory Concentration E. Coli GC2847 (TEM-1) (E. Coli GC2847 (TEM-1)) [µg/mL] | Minimal Inhibitory Concentration E. Coli GC2894 (Ampc) (E. Coli GC2894 (Ampc)) [µg/mL] | ED50 [4, 6] [mg/kg] | IC50 [5] [nM] | ED50 ([4]; Ratio of Piperacillin vs. Inhibitor 4:1) [mg/kg]
O=C([O-])C1=CS[C@@H]2/C(=C\c3cc4n(n3)CCCO4)C(=O)N12.[Na+] [Example 36, (5R)(6Z)-6-(6,7-5H-Dihydropyrazolo[5,1-b]oxazin-2-ylmethylene)-7-oxo-4-thia-1-azabicyclo[3.2.0]hept-2-ene-2-carboxylic acid, sodium salt] | 16 | 1 | 1 | 413 | 140 | 4.5 | 2 | 2 | 4 | 0.06 | 4 | 2 | 90 | 6.3 | –
COc1ccc(CN2CCc3sc(/C=C4/C(=O)N5C(C(=O)O)=CS[C@H]45)cc3C2)cc1 [Example 4] | 64 | 2 | 32 | – | – | – | 2 | 2 | 2 | 0.50 | 8 | 2 | – | – | 32 to 64
CC(=O)N1CCc2sc(/C=C3/C(=O)N4C(C(=O)[O-])=CS[C@H]34)cc2C1.[Na+] (single isomer, unassigned) [Example 34] | >64 | 2 | 32 | – | – | – | 4 | 4 | 2 | – | 32 | 32 | 32 | – | –
